# Measurements taken from article PMC5428013, “Peptide-Au Clusters Induced Tumor Cells Apoptosis via Targeting Glutathione Peroxidase-1: The Molecular Dynamics Assisted Experimental Studies” (Scientific Reports, 2017).
# Tests used:
# GPx-1 [1] = assay: GPx-1 enzyme activity suppression in buffer; format: biochemical, bovine; settings: buffer, Au dose of 400 μM, 10 min, GPx Activity Colorimetric Assay Kit, NADPH absorbance at 340 nm
# From the text: The peptides (N2H-CCYGGPEEEEEVG-COOH (named P1), NH2-CCYGGPDDDEDVG-COOH (named P2) and NH2-CCYGGPEEVEEVG-COOH (named P3)) were chemically synthesized by a solid phase method (China Peptides Co. Ltd, Purity: 98%). Hydrogen tetrachloroaurate (III) (HAuCl4·4H2O) was purchased from Sinopharm Chemical Reagent Co. Ltd. Sodium hydroxide (NaOH), nitric acid (HNO3), hydrochloric acid (HCl) and hydrogen peroxide (H2O2) were purchased from Beijing Chemical Reagent Co., China. Human non-small cell lung carcinoma cells (A549 cells), Henrietta Lacks strain of cancer cells (Hela cells) and human colon adenocarcinoma cells (HCT-8 cells) were from Cancer Institute and Hospital, Chinese Academy of Medical Sciences. Fetal bovine serum (FBS) and trypsin-EDTA were obtained from Gibco, USA. Penicillin-streptomycin solution, cell culture medium DMEM and RPMI 1640 were purchased from Hyclone. Hoechst 33342, LysoTracker®Green DND-26, and CM-H2DCFDA were from Molecular Probes, USA. NucView™ 488 Caspase-3 Assay Kit was bought from Biotium, USA. 5,5′,6,6′-tetrachloro-1,1′,3,3′-tetraethylbenzimidazolocarbocyanine iodide (JC-1), cell lysis buffer for Western and IP, phenylmethanesulfonyl fluoride (PMSF) and BCA Protein Assay Kit were obtained from Beyotime Institute of Biotechnology, China. Protease inhibitor cocktail tablets were from Roche Diagnostics, GmbH, Mannheim, Germany. Cell counting kit-8 (CCK-8) reagents and Annexin V-FITC/Propidium (PI) Apoptosis Detection Kit were purchased from Dojindo Laboratories, Japan. GPx from bovine erythrocytes […] was provided by Sigma Aldrich, USA. GPx Activity Colorimetric Assay Kit was provided by Biovision, USA. Anti-GPx-1 antibody was offered by Abcam, UK. PARP antibody, caspase-3 antibody and β-actin antibody were offered by Cell Signaling Technology, USA. Amicon ultra centrifugal filter devices (Merck Millipore, MWCO: 10 kDa) were used for purification steps. Ultrapure Millipore (Mini-Q) water (18.2 MΩ) was used throughout the experiments. […]
# Pure GPx (lyophilized powder, ≥300 units/mg protein) were diluted by GPx sample buffer and incubated with peptide-Au clusters (Au25P1_9, Au25P2_9 and Au25P3_9) at a series of Au dose (0, 25, 100, 400 μM) for 10 min, respectively. […] The GPx activity of untreated samples was set as 100%, and that of peptide-Au clusters treated samples were expressed as a relative percentage of untreated ones.
# Figure S12. Peptide-Au clusters treated GPx-1 activity measured in buffer solution. The decrease in NADPH absorbance measured at 340 nm during the oxidation of NADPH to NADP is the indicative of GPx activity,^1, 2 which is in a dose dependent manner in tube experiments when treated with serial doses of peptide-Au clusters.
# A549 cells = assay: Cell viability assay (CCK-8), A549; format: cell-based, human; settings: A549, Au dose of 800 μM, 48 h, CCK-8; mean from three independent experiments
# Description: Briefly, cells were prior cultured on 96-well plates (at the density of 5 × 10^3 cells/well) for 24 h to allow cells attachment. The cells were treated with different doses of these free peptides (0, 1, 4, 16, 64, 256, 1024 µM) and peptide-Au clusters (0, 50, 100, 200, 400, 800 µM in Au dose) for 48 h, respectively. The cells were washed three times with PBS and then incubated with fresh growth medium containing 10% (v/v) CCK-8 reagent for 1 h at 37 °C for cell viability assay. The absorbance was measured at 450 nm by using a microplate reader (SpectraMAX M2, Sunnyvale, California). Cell viability of untreated cells was set as 100%, and that of treated cells were expressed as a relative percentage of untreated cells. All data were shown as mean percentages ± standard deviation from three independent experiments.
# GPx-1 [2] = settings: through interacting with selenocystein by forming a stable gold-Sec complex; cited from earlier work
# From the text: Glutathione peroxidase-1 (GPx-1), a crucial antioxidant selenoenzyme in mammalian cells, is selected as a model drug target for tumor treatment. Suppression of intracellular GPx-1 activity induces the accumulation of hydrogen peroxide (reactive oxygen species, ROS), which would render tumor cells susceptible to ROS-induced apoptosis, [20].
GPx-1 activity (relative to untreated = 100%) (GPx-1 [1]) [%],Molecule,cell viability (relative to untreated = 100%) (A549 cells) [%],inhibition of GPx-1 activity (GPx-1 [2])
16,"CCYGGPDDDEDVG [Au25P2_9, Au25 cluster coated by nine P2 peptides (…)]",53,
,O=C(O)CC([S-])C(=O)O.[Au+] (stereo not drawn) [gold thiomalate],,can inhibit GPx-1 activity
,CC(=O)OC[C@H]1O[C@@H]([S-])[C@H](OC(C)=O)[C@@H](OC(C)=O)[C@@H]1OC(C)=O.CCP(CC)CC.[Au+] [auranofin],,can inhibit GPx-1 activity
29,"CCYGGPEEVEEVG [Au25P3_9, Au25 cluster coated by nine P3 peptides (…)]",71,
